Test results from PubChem BioAssay AID449762 (Southern Research Specialized Biocontainment Screening …, 2010).
Inconclusive results are not listed.

Tested on: M. tuberculosis H37Rv growth inhibition, 7H9 media
Assay: M. tuberculosis growth inhibition, HTS (AID 449762);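 also: bacterial growth assessed after seven days of incubation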
Conditions: for IC90: measured here: IC90 growth inhibition

Row | Structure (SMILES) | IC50 | IC90
1 | C=C1CCC[C@]2(C)C[C@H]3OC(=O)C(CNC(C)CCCC(C)C)[C@H]3CC12 (stereo partly specified) | 22.4 µM | 24.2 µM
2 | COc1ccc(C2CC(=O)C3=C(C2)NC(C)=C(C#N)C3c2ccc(N(C)C)cc2)cc1 (stereo unspecified) | 19.6 µM | 33 µM
3 | NC(N)=Nc1nc(-c2ccccc2)c2ccccc2n1 | 68 µM | 87.9 µM
4 | COc1ccc(-c2nc(NC(=O)Cn3ccc(C(F)(F)F)n3)sc2C)cc1 | < 0.2 µM | 2.92 µM
5 | O=c1cc(-c2ccccc2Cl)oc2ccc([N+](=O)[O-])c(O)c12 | 11.9 µM | 15.6 µM
6 | CCN(CC)c1ccc2nc3ccccc3[n+](CC)c2c1 | 2.71 µM | 5.66 µM
7 | O=C(Nc1cc(C(F)(F)F)ccc1Cl)C(Sc1cccc[n+]1[O-])c1ccccc1 (stereo unspecified) | 39.2 µM | 47.9 µM
8 | CSc1ccc(CNC(=O)C2Cc3cc(S(=O)(=O)N4CCCCC4)ccc3N2C(C)=O)cc1 (stereo unspecified) | 46.4 µM | > 50 µM
9 | Cn1cc(C(=O)c2ccc(Cl)cc2)cc1-c1nc2ccccc2n1C | 13.4 µM | 27.1 µM
10 | CC1(C)C2CCC1(C)C(OCC[N+](C)(C)CC(=O)OC1CCCCC1)C2 (stereo unspecified) | 10.9 µM | 12.2 µM
11 | CCOC(=O)c1[nH]c(CN2CCN(c3ccc(OC)cc3)CC2)c(C(=O)OCC)c1C | 23 µM | 26 µM
12 | CC(C)CC[n+]1ccccc1/C=C/c1ccc(N(C)C)cc1 | 5.3 µM | 8.41 µM
13 | Cc1ccc2c(c1)c(/C=C/c1cc[n+](C)cc1)c(C)n2C | 5.13 µM | 6.8 µM
14 | COc1ccc(OC)c(CN2CCN(C(=O)CNC(=O)c3ccc(C(C)(C)C)cc3)CC2)c1 | 47.4 µM | 67.8 µM
15 | N#C/C=C\Oc1ccc(Cl)cc1N | 14 µM | 23.3 µM
16 | Cc1cc(C)n(-c2nc(Nc3ccccc3C(F)(F)F)nc(-n3nc(C)cc3C)n2)n1 | 0.65 µM | 1.56 µM
17 | Brc1ccc(N/N=C(/N=Nc2nn[nH]n2)c2ccccc2)cc1 | 14.2 µM | 22.1 µM
18 | S=C(NCc1ccc(Cl)cc1)NC12CC3CC(CC(C3)C1)C2 | 0.7 µM | 11.6 µM
19 | O=c1cc(N=Nc2ccc(Cl)cc2)[nH]c(=O)[nH]1 | 42 µM | > 100 µM
20 | O=C1CC(=C(c2ccccc2)c2ccccc2)C(=O)N1CCCCN1CCN(c2ccccc2)CC1 | 22.8 µM | 26 µM
21 | OC(COC(c1ccc(Cl)cc1)c1ccc(Cl)cc1)CN1CCc2ccccc2C1 (stereo unspecified) | 18.8 µM | 24.7 µM
22 | CCOc1cc(CNCCCN2CCOCC2)cc(Br)c1OCC(=O)Nc1cccc(C(F)(F)F)c1 | 22.1 µM | 31.7 µM

Row | Structure (SMILES) | IC50 | IC90
23 | CCCOc1cccc(-c2nn(-c3ccccc3)cc2/C=C(\C#N)C(=O)NCCCn2ccnc2)c1 | 44.7 µM | 62.3 µM
24 | Cc1nonc1OCCNCCNc1ccc([N+](=O)[O-])c2cccnc12 | 6.68 µM | 13.9 µM
25 | COC(=O)[C@@H](NC(=O)O[C@@H]1C(=O)c2ccc(OC)cc2O[C@H]1c1cccc(C(F)(F)F)c1)C(C)C | 56.2 µM | > 100 µM
26 | CCCc1cc(-c2nc(-c3ccc(Br)cc3)cs2)ccn1 | 10.3 µM | 20.6 µM
27 | CS(=O)(=O)c1ncc(Cl)c(C(=O)Nc2ccc(OC(F)F)cc2)n1 | 5.68 µM | 15.5 µM
28 | Cc1nn(Cc2ccccc2)c(C)c1NC(=O)c1cc2nc(-c3ccco3)cc(C(F)(F)F)n2n1 | 46.5 µM | > 100 µM
29 | COc1ccc(-c2nsc3c(N4CCCCC4C)ncnc23)cc1 (stereo unspecified) | 41.2 µM | 56.8 µM
30 | Oc1ccc2ccccc2c1N=Nc1nccs1 | < 0.2 µM | 2.01 µM
31 | N#C/C(=C/c1ccc(Sc2nc3ccccc3[nH]2)o1)c1cccc(Br)c1 | 77.6 µM | > 100 µM
32 | Cc1cc(NC(=O)c2cc(-c3ccncc3)nc3c(C)cccc23)no1 | 46.5 µM | > 100 µM
33 | CC(=O)c1cccc(NC(=O)C2C3C=CC(C3=C(c3ccccc3)c3ccccc3)C2C(=O)O)c1 (stereo unspecified) | – | > 100 µM
34 | Cc1ccc(C2=NCCn3c2c2ccccc2[n+]3[O-])cc1 | 22.6 µM | 38.9 µM
35 | Cc1ccc(CNc2ccc3c(c2)ncn3C(C)(C)C)cc1 | 7.41 µM | 14.8 µM
36 | COc1cccc(C2C3=C(N=c4s/c(=C\c5cccc(O)c5)c(=O)n42)c2ccccc2CC3)c1OC (stereo unspecified) | 23.3 µM | 27.1 µM
37 | Cc1nc2sccn2c(=O)c1CCN1CCC(=C(c2ccccc2)c2ccc(F)cc2)CC1 | 44.7 µM | 49.9 µM
38 | CCc1cc(C(=O)Nc2nc(-c3ccccn3)cs2)sc1C | 1.26 µM | 15.3 µM
39 | Cc1ccc(NC(=O)Cc2ccc(-c3ccccc3)cc2)nc1 | 25 µM | 61.3 µM
40 | Clc1ccc(CSc2ncn[nH]2)cc1 | – | > 100 µM
41 | Cc1onc(-c2c(F)cccc2Cl)c1C(=O)O/N=C(\N)c1ccc([N+](=O)[O-])o1 | 5.3 µM | 11 µM
42 | Cc1ccc(C)c(N2CCN(C(=S)Nc3ccc4nc(N5CCN(C)CC5)cc(C)c4c3)CC2)c1 | 38.7 µM | 50.9 µM
43 | COc1ccc([C@H]2CC(=O)C=C(c3ccc4c5c(cccc35)CC4)C2)cc1 | 11 µM | 23 µM
44 | O=C(CCl)NCCCCCCCCCNC(=O)CCl | < 0.2 µM | < 0.2 µM

Row | Structure (SMILES) | IC50 | IC90
45 | CC(=O)/C=C(\C)Nc1ccccc1O | 3.57 µM | 6.18 µM
46 | CC1CN(c2ccc([N+](=O)[O-])c(NCCOc3ccc(Cl)cc3)c2)CC(C)N1 (stereo unspecified) | 9.19 µM | 12.8 µM
47 | C=CCOc1c(Br)cc(CNc2nccs2)cc1OC | 22.3 µM | 40.9 µM
48 | CCOc1cccc2cc(C(=O)Nc3nccs3)c(=O)oc12 | 0.34 µM | 29.6 µM
49 | COC(=O)COc1ccc(-c2nn(C)c(=O)c3ccccc23)cc1 | 1.77 µM | 27.5 µM
50 | CCSc1ncc(/C=N/Nc2ccccc2)n1C | 89.3 µM | > 100 µM
51 | C=CCOc1ccc(C2=NOC(C(=O)Nc3ccc4c(c3)OCCO4)C2)cc1 (stereo unspecified) | 12.8 µM | 23.1 µM
52 | Cc1cc(C)n2nc(N)c(N=Nc3ccccc3)c2n1 | 2.9 µM | 3.27 µM
53 | COc1ccc(NC(=O)c2oc3ccc(S(=O)(=O)N4CCOCC4)cc3c2C)cc1 | 0.68 µM | 7.38 µM
54 | COc1c(C)cc(C(=O)C2CCCN(Cc3ccccn3)C2)cc1C (stereo unspecified) | 5.8 µM | > 100 µM
55 | C/C(CC(=O)Nc1ccc(Cl)cc1C(F)(F)F)=N\NC(N)=S | 16 µM | 19.5 µM
56 | CSc1ccc(C(=O)C2CCCN(C(=O)c3ccc4c(c3)no[n+]4[O-])C2)cc1 (stereo unspecified) | 0.54 µM | 1.57 µM
57 | COc1cc(C2c3cc4c(cc3C(OC3OC5COC(c6cccs6)OC5C(O)C3O)C3COC(=O)C23)OCO4)cc(OC)c1O (stereo unspecified) | 13.1 µM | 29.5 µM
58 | c1cc2c3c(cccc3c1)NC1(CCC3(CC1)Nc1cccc4cccc(c14)N3)N2 | 65.5 µM | > 100 µM
59 | O=C(N/N=C/c1c(F)c(F)c(F)c(F)c1F)c1cccc(S(=O)(=O)N2CCOCC2)c1 | – | > 100 µM
60 | O=c1[nH]c(=O)n(Cc2ccccc2)c2nc(-c3ccc(Oc4ccc(F)cc4)c([N+](=O)[O-])c3)n(CCO)c12 | 24.4 µM | > 100 µM
61 | O=C(OCn1ncc(Br)c(Br)c1=O)c1ccc(F)cc1 | 1.17 µM | 3.58 µM
62 | O=[N+]([O-])c1cccnc1N1CCC(c2cc(-c3cccc(C(F)(F)F)c3)n[nH]2)CC1 | 23.1 µM | 26.1 µM
63 | CCOC(=O)COc1ccc(S(=O)(=O)NCCC2=CCCCC2)cc1 | 13.6 µM | 27.6 µM
64 | CCc1ccc(C2=NN(c3ccc(S(N)(=O)=O)cc3)C(c3ccc(F)cc3)C2)cc1 (stereo unspecified) | 36.2 µM | 48.7 µM
65 | CC(C)(C)c1ccc(C(=O)N2CCN(CCNC(=O)C(=O)NCc3ccc(Cl)cc3)CC2)cc1 | 22.7 µM | 28.3 µM
66 | CCN(Cc1ccccc1)c1ccc(/C=N/N=C(N)N)cc1 | 17.1 µM | 30.1 µM

Row | Structure (SMILES) | IC50 | IC90
67 | CC(/C=N/NC(=O)c1cc(-c2ccc3ccccc3c2)n[nH]1)=C\c1ccco1 | 29 µM | 51.2 µM
68 | CCOC(=O)c1ccc2c(c1)C(=O)N(C1CCCCC1)C2=O | 98.3 µM | > 100 µM
69 | Cc1ccn2c(-c3csc(NCc4ccccc4)n3)c(C)nc2c1 | 46.8 µM | 52.8 µM
70 | COc1ccc(C(=O)OCCNC(=O)c2c(Cl)nc3ccccn23)cc1 | 10 µM | 16.1 µM
71 | Nc1ccc(-c2nc3ccc(-c4nc5ccccc5o4)cc3[nH]2)cc1 | 31.4 µM | 41.6 µM
72 | c1ccc2sc(Sc3ncnc4sccc34)nc2c1 | 3.36 µM | 6.95 µM
73 | CNc1ncnc2c1ncn2[C@@H]1O[C@H](CO)[C@@H](O)[C@H]1O | 2.68 µM | 5.73 µM
74 | O=C(c1ccc([N+](=O)[O-])s1)N1CCN(c2ccc(C(F)(F)F)cn2)CC1 | < 0.2 µM | < 0.2 µM
75 | CCOC(=O)C1CCCN(c2ncnc3c2cnn3-c2ccc(OC)cc2)C1 (stereo unspecified) | 2.3 µM | 10.7 µM
76 | Cc1nn(-c2ccccc2)c(N)c1N=Nc1ccc(Cl)cc1 | 27.3 µM | 41.5 µM
77 | CC(C)[C@H](CO)N(Cc1cccc(F)c1)c1nc(Nc2cccc(Cl)c2)c2ncn(C(C)C)c2n1 | 23.2 µM | 35.4 µM
78 | CC(C)(C)NC(=O)C(=O)NNC(=O)c1ccc(C(C)(C)C)cc1 | 5.71 µM | 17.6 µM
79 | CCCCCCc1cc2cc(C(=O)NCc3ccccc3)c(=N)oc2cc1O | 3.45 µM | 5.73 µM
80 | CCOc1ccc(-n2c(-c3ccc(Br)cc3)c[n+]3c2CCCCC3)cc1 | 69.7 µM | > 100 µM
81 | Cc1sc2ncnc(Oc3ccc(-n4ccnc4)cc3)c2c1C | 33.3 µM | 55.5 µM
82 | COc1ccc(-c2cc(-c3ccc(OC)cc3)[nH]n2)cc1 | 0.33 µM | 1 µM
83 | O=C(Cc1ccc([N+](=O)[O-])cc1)Nc1cc(C(F)(F)F)cc(C(F)(F)F)c1 | 2.74 µM | 3.12 µM
84 | CCOC(=O)C(C)Sc1nc(-c2cccs2)ccc1C#N (stereo unspecified) | 37.6 µM | 50.8 µM
85 | NC1=NC2(CCC(c3ccccc3)CC2)n2c(nc3ccccc32)N1 (stereo unspecified) | 28.6 µM | 38.3 µM
86 | COc1cccc(CC2(CO)CCCN(Cc3[nH]c4ccc(C)cc4c3C)C2)c1 (stereo unspecified) | 44 µM | 50.4 µM
87 | COC(=O)[C@@H](NC(=O)c1cc(COc2cncc(Cl)c2)on1)c1ccccc1 | 1.19 µM | 3.97 µM
